Test: recombinant barcode read abundance after kanamycin selection (control-corrected) (log10(CPM+1)); higher = more efficient recombination; sequences stand for … in AGTGCAGAGAAAATCGGCCAGTTTTCTCTGCCTGCAGTCCGCATGCCGT…AGATTTATGCAGCGGACTGCCTTTCTCCCAAAGTGATAAACCGGACAGTATCATGGACCGGTTTTCCCGGTAATCCGTATTTGCAAGGTTGGTTTCACT; site = the 11-nt target
Outline: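 In a pooled screen in E. coli, targets were paired with target-binding loops of the IS621 bridge RNA. Each oligo carried a promoter, a target, a barcode and the first 104 bridge RNA bases driven by J23119, and was Gibson-cloned into a vector holding the remaining 73 bp and a T7-inducible recombinase before co-electroporation with a donor plasmid. Duplicate platings went onto chloramphenicol/ampicillin LB agar as the control or onto chloramphenicol/ampicillin/kanamycin with 0.1 mM IPTG. Recombination efficiency is the averaged, control-corrected count per million of barcodes at recombinant junctions, given as log10(CPM+1).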
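Note: IS621 recombinase and bridge RNA in Escherichia coli cells.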

Row | Sequence | recombinant barcode read abundance (log10)
1 | GGTTTAGCTTGGGTTCTAACCTGTTGCTA (site TGTATAGCTTA) | 0.0842
2 | GTAAAACCTTGGGTTCTAACCTGTTGCCT (site ATAAAACCTAG) | 0.281
3 | GTAAAACCTTGGGTTCTAACCTGTTGCCT (site CTAAAACCTAG) | 0.23
4 | GTAAAACCTTGGGTTCTAACCTGTTGCCT (site GTAAAACCTAG) | 1.06
5 | GTAAAACCTTGGGTTCTAACCTGTTGCCT (site TTAAAACCTAG) | 0.266
6 | GTAAACCCTTGGGTTCTAACCTGTTGCGG (site GTAAACCCTCC) | 2.33
7 | GTAAACCCTTGGGTTCTAACCTGTTGCGG (site GTCAACCCTCC) | 0.228
8 | GTAACGACTTGGGTTCTAACCTGTTGCCA (site GTAACGACTTG) | 1.08
9 | GTAACGACTTGGGTTCTAACCTGTTGCCA (site GTGAGGACTTG) | 0.0765
10 | GTAAGTCCTTGGGTTCTAACCTGTTGCAG (site GTAAGAACTCT) | 0.0477
11 | GTAAGTCCTTGGGTTCTAACCTGTTGCAG (site GTAAGTCCTCT) | 1.97
12 | GTAAGTGCTTGGGTTCTAACCTGTTGCAT (site ACCCAGTCTCC) | 0.174
13 | GTAAGTGCTTGGGTTCTAACCTGTTGCAT (site GTAAGTGCTAT) | 0.829
14 | GTAATCCCTTGGGTTCTAACCTGTTGCCA (site GTAATCCCTCG) | 0.173
15 | GTAATCCCTTGGGTTCTAACCTGTTGCCA (site GTAATCCCTTG) | 1.32
16 | GTACAGACTTGGGTTCTAACCTGTTGCCT (site GTACAGACTAG) | 1.43
17 | GTACAGACTTGGGTTCTAACCTGTTGCCT (site GTCCAGACTAG) | 0.0588
18 | GTACAGACTTGGGTTCTAACCTGTTGCCT (site GTGCAGACTAG) | 0.0183
19 | GTACAGACTTGGGTTCTAACCTGTTGCCT (site GTTCAGACTAG) | 0.078
20 | GTACAGGCTTGGGTTCTAACCTGTTGCAG (site GTACAGGCTCT) | 0.808
21 | GTACAGGCTTGGGTTCTAACCTGTTGCAG (site TGACAGGCTCT) | 0.178
22 | GTACGCACTTGGGTTCTAACCTGTTGCCT (site AGTTAGTCTCT) | 0.0249
23 | GTACGCACTTGGGTTCTAACCTGTTGCCT (site GTACGCACTAG) | 0.994
24 | GTAGTAGCTTGGGTTCTAACCTGTTGCCT (site GTAGTAACTAG) | 0.954
25 | GTAGTAGCTTGGGTTCTAACCTGTTGCCT (site GTAGTACCTAG) | 0.0193
26 | GTAGTAGCTTGGGTTCTAACCTGTTGCCT (site GTAGTAGCTAG) | 2.06

Row | Sequence | recombinant barcode read abundance (log10)
27 | GTAGTAGCTTGGGTTCTAACCTGTTGCCT (site GTAGTATCTAG) | 0.492
28 | GTAGTATCTTGGGTTCTAACCTGTTGCCT (site GTAGTAACTAG) | 0.0297
29 | GTAGTATCTTGGGTTCTAACCTGTTGCCT (site GTAGTACCTAG) | 0.115
30 | GTAGTATCTTGGGTTCTAACCTGTTGCCT (site GTAGTAGCTAG) | 0.104
31 | GTAGTATCTTGGGTTCTAACCTGTTGCCT (site GTAGTATCTAG) | 1.96
32 | GTATATACTTGGGTTCTAACCTGTTGCTT (site ACGGGGCCTCG) | 0.0368
33 | GTATATACTTGGGTTCTAACCTGTTGCTT (site GTATATACTAA) | 0.578
34 | GTATCATCTTGGGTTCTAACCTGTTGCCT (site GTATCAACTAG) | 0.126
35 | GTATCATCTTGGGTTCTAACCTGTTGCCT (site GTATCACCTAG) | 0.942
36 | GTATCATCTTGGGTTCTAACCTGTTGCCT (site GTATCAGCTAG) | 0.0191
37 | GTATCATCTTGGGTTCTAACCTGTTGCCT (site GTATCATCTAG) | 0.52
38 | GTATCGTCTTGGGTTCTAACCTGTTGCCT (site GTATCGTCTAG) | 1.69
39 | GTATCGTCTTGGGTTCTAACCTGTTGCCT (site GTATGGTCTAC) | 0.111
40 | GTATCTACTTGGGTTCTAACCTGTTGCCT (site GAATCTACTAG) | 0
41 | GTATCTACTTGGGTTCTAACCTGTTGCCT (site GCATCTACTAG) | 0.0197
42 | GTATCTACTTGGGTTCTAACCTGTTGCCT (site GGATCTACTAG) | 0.25
43 | GTATCTACTTGGGTTCTAACCTGTTGCCT (site GTATCTACTAG) | 0.069
44 | GTATGCCCTTGGGTTCTAACCTGTTGCTA (site GTATCCACTTA) | 0.273
45 | GTATGCCCTTGGGTTCTAACCTGTTGCTA (site GTATGCCCTTA) | 1.12
46 | GTATTAGCTTGGGTTCTAACCTGTTGCCG (site GAATTAGCTCC) | 0.128
47 | GTATTAGCTTGGGTTCTAACCTGTTGCCG (site GTATTAGCTCG) | 1.44
48 | GTCAAACCTTGGGTTCTAACCTGTTGCTG (site GTCAAACCTCA) | 0.974
49 | GTCAAACCTTGGGTTCTAACCTGTTGCTG (site GTCAACCCTCA) | 0.232
50 | GTCAAACCTTGGGTTCTAACCTGTTGCTG (site GTCAAGCCTCA) | 0.0163
51 | GTCAAACCTTGGGTTCTAACCTGTTGCTG (site GTCAATCCTCA) | 0.0782
52 | GTCAAGCCTTGGGTTCTAACCTGTTGCTG (site GTCAAACCTCA) | 0.0753

Row | Sequence | recombinant barcode read abundance (log10)
53 | GTCAAGCCTTGGGTTCTAACCTGTTGCTG (site GTCAACCCTCA) | 0.184
54 | GTCAAGCCTTGGGTTCTAACCTGTTGCTG (site GTCAAGCCTCA) | 1.23
55 | GTCAAGCCTTGGGTTCTAACCTGTTGCTG (site GTCAATCCTCA) | 0.0295
56 | GTCAAGTCTTGGGTTCTAACCTGTTGCTC (site CGACTCCCTAC) | 0.101
57 | GTCAAGTCTTGGGTTCTAACCTGTTGCTC (site GTCAAGTCTGA) | 0.694
58 | GTCAATTCTTGGGTTCTAACCTGTTGCCT (site GACACTTCTAG) | 0.109
59 | GTCAATTCTTGGGTTCTAACCTGTTGCCT (site GTCAATTCTAG) | 0.684
60 | GTCACAACTTGGGTTCTAACCTGTTGCCG (site AGGTTTGCTAA) | 0.056
61 | GTCACAACTTGGGTTCTAACCTGTTGCCG (site GTCACAACTCG) | 0.339
62 | GTCACAGCTTGGGTTCTAACCTGTTGCCT (site GTCAAAGCTTG) | 0.0492
63 | GTCACAGCTTGGGTTCTAACCTGTTGCCT (site GTCACAGCTAG) | 1.23
64 | GTCAGATCTTGGGTTCTAACCTGTTGCTT (site GTCAGATCTAA) | 0.398
65 | GTCAGATCTTGGGTTCTAACCTGTTGCTT (site TCGTTCGCTCG) | 0.0896
66 | GTCAGGGCTTGGGTTCTAACCTGTTGCCT (site GTCAGGGCTAG) | 0.275
67 | GTCAGGGCTTGGGTTCTAACCTGTTGCCT (site GTCATGGCTAG) | 0.197
68 | GTCATGCCTTGGGTTCTAACCTGTTGCGT (site GTCATGCCTAC) | 1.58
69 | GTCATGCCTTGGGTTCTAACCTGTTGCGT (site GTCTTCCCTAC) | 0.125
70 | GTCATGTCTTGGGTTCTAACCTGTTGCTG (site ACAGGTCCTTC) | 0.0358
71 | GTCATGTCTTGGGTTCTAACCTGTTGCTG (site GTCATGTCTCA) | 1.5
72 | GTCCAGCCTTGGGTTCTAACCTGTTGCAT (site CTCTAGCCTAT) | 0.0778
73 | GTCCAGCCTTGGGTTCTAACCTGTTGCAT (site GTCCAGCCTAT) | 1.98
74 | GTCCCTCCTTGGGTTCTAACCTGTTGCAT (site GTCCCTCCTAA) | 0.746
75 | GTCCCTCCTTGGGTTCTAACCTGTTGCAT (site GTCCCTCCTAC) | 0.405
76 | GTCCCTCCTTGGGTTCTAACCTGTTGCAT (site GTCCCTCCTAG) | 0.16
77 | GTCCCTCCTTGGGTTCTAACCTGTTGCAT (site GTCCCTCCTAT) | 1.96

Source: the supplement of paper PMC11208160
